Measurements published in patent US20210380548A1, “Fused [1,2,4]Thiadiazine Derivatives Which Act as KAT Inhibitors of the MYST Family” (CTxT Pty Limited, priority 2017, published 2021).

Legend:
[1] = target: T1, MOZ-KAT6A (Homo sapiens, UniProt Q92794, A567V); test: Revised Acetyltransferase Biochemical Assay, KAT6A; details: Table 8 (MOZ-KAT6A), 1 μM Acetyl coenzyme A
T1 construct: encoding amino acid residues 507 to 778 (Uniprot Q92794-1) of human KAT6A; made in house; host or cells: E. coli BL21 DE3

[2] = target: T2, TIP60-KAT5 (Homo sapiens, UniProt Q92993); test: Acetyltransferase biochemical assay (AlphaScreen), KAT5; details: Table 1 (TIP60-KAT5); 0.4 μM Acetyl coenzyme A, histone H4, 10 nM enzyme
T2 construct: encoding amino acid residues 2 to 461 (Uniprot Q92993-2) of human KAT5 isoform; made in house; host or cells: E. coli BL21 DE3

[3] = tested on: histone H3K23 acetylation (KATE mediated) in U2OS cells; test: Histone H3 Lysine 23 Acetylation Biomarker Assay (U2OS); assay type: cell-based; details: Homo sapiens, 96 well, 24 hours incubation
Experimental: Compounds may be tested for their ability to inhibit acetylation of the histone H3K23 marker, which is KATE mediated, in the following assay:
The cell line U2OS was seeded at a density of 9,000 cells per well in 96 well optical quality tissue culture plates in RPMI medium and 10% foetal bovine serum, and allowed to adhere for 24 hours under standard culture conditions (37 degree Celsius, 5% CO2). At the end of this period the medium was aspirated. Compound dilutions prepared in DMSO were added to medium, with negative control wells reserved for treatment with DMSO only and 100% inhibition positive controls receiving a potent inhibitor compound (e.g. cas 2055397-28-7, benzoic acid, 3-fluoro-5-(2-pyridinyl)-, 2-[(2-fluorophenyl)sulfonyl]hydrazide) (Baell, J., Nguyen, H. N., Leaver, D. J., Cleary, B. L., Lagiakos, H. R., Sheikh, B. N., Thomas. T. J., Aryl sulfonohydrazides, WO2016198507A1, 2016) at 10 μM concentration and 200 μL transferred to the cells. After incubation for 24 hours, the cells were fixed with 3.7% formaldehyde in PBS for 20 minutes at room temperature, washed (5×5 minutes) with phosphate buffer saline containing 0.1% Tween 20 and blocked with Odyssey blocking buffer (LI-COR, Lincoln, Nebr.) containing 0.1% TritonX100. Anti-H3K23ac specific antibody (Abcam ab177275) in Odyssey blocking buffer containing 0.1% Tween 20 was added and incubated for 16 hours at 4 degree Celsius. After washing (as above), a secondary antibody labelled with Alexa647 dye (LifeTechnologies) and Hoechst 33342 (1 μg/mL, SigmaAldrich) were added for 1 hour incubation. Plates were washed as previously and read on a PerkinElmer Phenix high content imaging platform. Using a Columbus image analysis pipeline, individual nuclei were located by Hoechst 33342 stain and the acetylation level was calculated from the Alexa647-related intensity in the same area. The resulting mean intensity per cell was directly converted to percent inhibition relative to controls on the same plate and the data fitted against a four-parameter logistic model to determine the 50% inhibitory concentration (IC50).

[4] = target: T2, TIP60-KAT5; test: Revised Acetyltransferase Biochemical Assay, KAT5; details: 10 nM KAT5, 1 μM AcCoA, 100 nM histone H4, 90 min
[5] = target: T3, HBO-KAT7 (Homo sapiens, UniProt O95251); test: Acetyltransferase biochemical assay (AlphaScreen), KAT7; details: Table 3 (HBO-KAT7); 0.4 μM Acetyl coenzyme A, histone H3.1, 40 nM enzyme
T3 construct: encoding amino acid residues 325 to 611 (Uniprot 095251-1) of human KAT7; made in house; host or cells: E. coli BL21 DE3 RIL

[6] = target: T3, HBO-KAT7; test: Revised Acetyltransferase Biochemical Assay, KAT7; details: Table 9 (HBO-KAT7), 1 μM Acetyl coenzyme A
[7] = target: T4, MOF-KAT8 (Homo sapiens, UniProt Q9H7Z6); test: Revised Acetyltransferase Biochemical Assay, KAT8
T4 sequence (Q9H7Z6 177-447): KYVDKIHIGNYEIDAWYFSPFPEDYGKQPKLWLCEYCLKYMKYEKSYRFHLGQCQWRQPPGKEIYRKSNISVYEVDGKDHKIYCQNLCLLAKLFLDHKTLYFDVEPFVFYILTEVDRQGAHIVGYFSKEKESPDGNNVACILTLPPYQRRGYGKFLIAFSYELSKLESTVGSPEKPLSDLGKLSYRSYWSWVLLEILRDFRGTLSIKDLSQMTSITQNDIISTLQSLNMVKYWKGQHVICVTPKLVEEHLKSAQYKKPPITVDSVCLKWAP

[8] = target: T1, MOZ-KAT6A; test: Acetyltransferase biochemical assay (AlphaScreen), KAT6A; details: Table 2 (MOZ-KAT6A); 10 μM Acetyl coenzyme A, histone H3.1, 5 nM enzyme
[9] = target: T4, MOF-KAT8; test: Acetyltransferase biochemical assay (AlphaScreen), KAT8; details: Table 4 (MOF-KAT8); 0.4 μM Acetyl coenzyme A, histone H4, 20 nM enzyme
[10] = tested on: histone H2A.Z Lysine 7 acetylation (TIP60 mediated) in U2OS cells; test: H2A.Z Lysine 7 Acetylation Biomarker Assay (384-well, U2OS); assay type: cell-based; details: Homo sapiens, serum free medium, 24 hours incubation
Experimental: Compounds may be tested for their ability to inhibit the histone H2A.Z Lysine 7 acetylation marker (which is TIP60 mediated) in the following assay:
The cell line U2OS was seeded at a density of 3,000 cells per well in 384-well optical quality tissue culture plates in RPMI medium supplemented with 10% foetal bovine serum and 10 mM Hepes. The cells were allowed to adhere for 24 hours under standard culture conditions (37 degree Celsius, 5% CO2). At the end of this period the cells were washed with serum free medium. […] After incubation for 24 hours, the cells were fixed with 4% formaldehyde in PBS for 15 minutes at room temperature, washed with phosphate buffer saline and blocked with blocking buffer containing 0.2% TritonX100 and 2% BSA. Anti-H2A.ZK7ac specific antibody (Abcam) in blocking buffer was added and incubated overnight at 4 degree Celsius. After washing, a secondary antibody labelled with AlexaFluor 488 dye (ThermoFisher) and Hoechst 33342 (1 μg/mL, Life Technologies) were added for 2 hours incubation at room temperature. Plates were washed and read on a PerkinElmer Opera HCS high content imaging platform. Using a Columbus image analysis pipeline, individual nuclei were located by Hoechst 33342 stain and the acetylation level was calculated from the AlexaFluor 488-related intensity in the same area. The resulting mean intensity per cell was converted to percent inhibition relative to controls on the same plate and the data fitted against a four-parameter logistic model to determine the 50% inhibitory concentration (IC50).

[11] = tested on: histone H3 Lysine 14 acetylation (HBO1 mediated) in U2OS cells; test: Histone H3 Lysine 14 Acetylation Biomarker Assay (384-well, U2OS); assay type: cell-based; details: Homo sapiens, serum free medium, 24 hours incubation
Experimental: Compounds may be tested for their ability to inhibit acetylation of the histone H3 Lysine 14 (which is HBO1 mediated) marker in the following assay:
The cell line U2OS was seeded at a density of 3,000 cells per well in 384-well optical quality tissue culture plates in RPMI medium supplemented with 10% foetal bovine serum and 10 mM Hepes. The cells were allowed to adhere for 24 hours under standard culture conditions (37 degree Celsius, 5% CO2). At the end of this period the cells were washed with serum free medium. Compound dilutions prepared in DMSO were added to the serum free medium, with negative control wells reserved for treatment with DMSO only and 100% inhibition positive controls receiving a potent inhibitor compound (e.g. (Z)-4-fluoro-N-((3-hydroxyphenyl)sulfonyl)-5-methyl-[1,1′-biphenyl]-3-carbohydrazonic acid) at 10 μM concentration. After incubation for 24 hours, the cells were fixed with 4% formaldehyde in PBS for 15 minutes at room temperature, washed with phosphate buffer saline and blocked with blocking buffer containing 0.2% TritonX100 and 2% BSA. Anti-H3K14ac specific antibody (Cell Signalling Technologies) in blocking buffer was added and incubated overnight at 4 degree Celsius. After washing, a secondary antibody labelled with AlexaFluor 488 dye (ThermoFisher) and Hoechst 33342 (1 μg/mL, Life Technologies) were added for 2 hours incubation at room temperature. Plates were washed and read on a
PerkinElmer Opera HCS high content imaging platform. Using a Columbus image analysis pipeline, individual nuclei were located by Hoechst 33342 stain and the acetylation level was calculated from the AlexaFluor 488-related intensity in the same area. The resulting mean intensity per cell was converted to percent inhibition relative to controls on the same plate and the data fitted against a four-parameter logistic model to determine the 50% inhibitory concentration (IC50).

T2 sequence (Q92993 2-461 isoform Q92993-2): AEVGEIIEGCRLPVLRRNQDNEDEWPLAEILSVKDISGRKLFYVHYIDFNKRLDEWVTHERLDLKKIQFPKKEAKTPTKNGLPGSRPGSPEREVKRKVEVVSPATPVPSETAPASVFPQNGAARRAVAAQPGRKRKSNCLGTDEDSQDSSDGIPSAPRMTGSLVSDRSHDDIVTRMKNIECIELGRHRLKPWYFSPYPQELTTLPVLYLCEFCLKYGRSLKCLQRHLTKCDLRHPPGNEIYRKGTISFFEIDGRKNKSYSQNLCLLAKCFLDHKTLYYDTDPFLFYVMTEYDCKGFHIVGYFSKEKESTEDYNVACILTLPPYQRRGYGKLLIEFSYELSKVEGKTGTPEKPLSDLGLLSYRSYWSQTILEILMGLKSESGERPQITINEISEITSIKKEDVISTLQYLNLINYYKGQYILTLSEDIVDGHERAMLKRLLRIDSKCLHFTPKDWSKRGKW
T3 sequence (O95251 with tags, fused parts or gaps): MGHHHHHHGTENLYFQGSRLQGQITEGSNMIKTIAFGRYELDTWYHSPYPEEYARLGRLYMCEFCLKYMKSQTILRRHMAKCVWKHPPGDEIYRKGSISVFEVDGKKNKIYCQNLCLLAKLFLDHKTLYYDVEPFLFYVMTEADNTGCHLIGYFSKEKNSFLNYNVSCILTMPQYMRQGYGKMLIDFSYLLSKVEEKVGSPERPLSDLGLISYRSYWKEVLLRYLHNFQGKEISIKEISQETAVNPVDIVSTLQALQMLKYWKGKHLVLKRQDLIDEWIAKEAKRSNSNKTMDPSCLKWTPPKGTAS
T1 sequence (Q92794 507-778 A567V limits assumed): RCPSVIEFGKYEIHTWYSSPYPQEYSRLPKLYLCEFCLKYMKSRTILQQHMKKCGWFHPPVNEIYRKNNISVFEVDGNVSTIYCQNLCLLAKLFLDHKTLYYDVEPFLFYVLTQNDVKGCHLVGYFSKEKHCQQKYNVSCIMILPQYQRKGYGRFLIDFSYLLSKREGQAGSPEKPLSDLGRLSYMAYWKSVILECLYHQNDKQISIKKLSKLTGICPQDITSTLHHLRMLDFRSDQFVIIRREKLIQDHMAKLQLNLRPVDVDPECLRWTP

Structure (SMILES)	IC50 [1] [nM]	IC50 [2] [nM]	IC50 [3] [nM]	IC50 [4] [nM]	IC50 [5] [nM]	IC50 [6] [nM]	IC50 [7] [nM]	IC50 [8] [nM]	IC50 [9] [nM]	IC50 [10] [nM]	IC50 [11] [nM]
O=C(NCC(O)c1ccccc1OC(F)F)C1=Nc2ccc(I)cc2S(=O)(=O)N1 (centres unmarked) [Example 57, N-(2-(2-(difluoromethoxy)phenyl)-2-hydroxyethyl)-7-iodo-2H-benzo[e][1,2,4]thiadiazine-3-carboxamide 1,1-dioxide]	403	2800	> 10000	725	2530	840	11300				
O=C(NCC(c1ccccc1)c1ncco1)C1=Nc2ccncc2S(=O)(=O)N1 (centres unmarked) [Example 97]	417	> 125000	> 10000	26100	49400			4000			
COc1ccccc1C(CNC(=O)C1=Nc2ccc(Cl)cc2S(=O)(=O)N1)c1ncco1 (centres unmarked) [Example 178]	21			852	571	112	61000		106000	20500	
CNC(=O)CCCOC(=O)C(CNC(=O)C1=Nc2ccc(I)cc2S(=O)(=O)N1)c1ccccc1 (centres unmarked) [Example 180]	229			249		557			77000	37500	
CNC(=O)CCOC(=O)C(CNC(=O)C1=Nc2ccc(I)cc2S(=O)(=O)N1)c1ccccc1 (centres unmarked) [Example 183]	44			68		718	30500		36300	33200	
COc1ccccc1C(CNC(=O)C1=Nc2ccc(I)cc2S(=O)(=O)N1)c1ncco1 (centres unmarked) [Example 184, 7-iodo-N-(2-(2-methoxyphenyl)-2-(oxazol-2-yl)ethyl)-2H-benzo[e][1,2,4]thiadiazine-3-carboxamide 1,1-dioxide]	8			99		114	10200		9220	8280	
COc1cccc(C(CNC(=O)C2=Nc3ccc(Br)cc3S(=O)(=O)N2)c2ncco2)c1 (centres unmarked) [Example 188, 7-bromo-N-(2-(3-methoxyphenyl)-2-(oxazol-2-yl)ethyl)-2H-benzo[e][1,2,4]thiadiazine-3-carboxamide 1,1-dioxide]	41			1440		215	54300		39800		427
CC(O)c1ccc2c(c1)S(=O)(=O)NC(C(=O)NCC(c1ccccc1)c1ncco1)=N2 (centres unmarked) [Example 212, 7-(1-Hydroxyethyl)-N-(2-(oxazol-2-yl)-2-phenylethyl)-2H-benzo[e][1,2,4]thiadiazine-3-carboxamide 1,1-dioxide]	241			4000		1090			40800		4150
Cc1cccc(C(CNC(=O)C2=Nc3ccc(Cl)cc3S(=O)(=O)N2)c2ncco2)c1 (centres unmarked) [Example 234, 7-chloro-N-(2-(oxazol-2-yl)-2-(m-tolyl)ethyl)-2H-benzo[e][1,2,4]thiadiazine-3-carboxamide 1,1-dioxide]	72			1370		89	23600		57300	6150	
O=C(NCC(c1ncco1)c1ccccc1F)C1=Nc2ccc(I)cc2S(=O)(=O)N1 (centres unmarked) [Example 235, N-(2-(2-fluorophenyl)-2-(oxazol-2-yl)ethyl)-7-iodo-2H-benzo[e][1,2,4]thiadiazine-3-carboxamide 1,1-dioxide]	9			34		115	3230		6590	1080	
O=C(NCC(c1ncco1)c1ccccc1F)C1=Nc2ccc(Cl)cc2S(=O)(=O)N1 (centres unmarked) [Example 236, 7-chloro-N-(2-(2-fluorophenyl)-2-(oxazol-2-yl)ethyl)-2H-benzo[e][1,2,4]thiadiazine-3-carboxamide 1,1-dioxide]	10			113		73	19600		20200	7850	
O=C(NCC(c1ccccn1)n1cccn1)C1=Nc2ccc(Br)cc2S(=O)(=O)N1 (centres unmarked) [Example 244, N-(2-(1H-Pyrazol-1-yl)-2-(pyridin-2-yl)ethyl)-7-bromo-4H-benzo[e][1,2,4]thiadiazine-3-carboxamide 1,1-dioxide]	6830			14600		3830			82900		> 40000
